This is an account of results in ChEMBL document CHEMBL1144479, “Synthesis and antimicrobial studies on novel chloro-fluorine containing hydroxy pyrazolines” (2007).

In one test the test system is Talaromyces marneffei. Put plainly: Antifungal activity against Penicillium marneffei after 3 to 4 days by serial plate dilution method. The settings on record: for MIC: Talaromyces marneffei. The format is functional.
The next test deals with Streptococcus pyogenes. Put plainly: Antibacterial activity against Streptococcus pyogenes after 24 hrs by disc diffusion method. The format is functional. The settings on record: for MIC: Streptococcus pyogenes, 24 h. On the technique in general: Agar diffusion results depend on both activity and mobility in agar.
Another test concerns Candida albicans. Kind of test: Antifungal activity against Candida albicans NCIM no. 300 after 3 to 4 days by serial plate dilution method. The format is functional. The settings on record: for MIC: Candida albicans.
Another test has as its system Aspergillus flavus. Kind of test: Antifungal activity against Aspergillus flavus NCIM no. 524 after 3 to 4 days by serial plate dilution method. The format is functional. The settings on record: for MIC: Aspergillus flavus.
Another test concerns Escherichia coli. Kind of test: microbe, parasite or virus in culture. The format is functional, ATCC 25922. To be noted: for MIC: Escherichia coli, ATCC 25922, 24 h.
For a further test, the system named is Staphylococcus aureus. Kind of test: microbe, parasite or virus in culture. The format is functional, ATCC 25923. To be noted: for MIC: Staphylococcus aureus, ATCC 25923, 24 h.
For the next test, the system named is Trichophyton benhamiae. Kind of test: Antifungal activity against Trichophyton mentagrophytes after 3 to 4 days by serial plate dilution method. To be noted: for MIC: Trichophyton benhamiae. The format is functional, Arthroderma benhamiae.
The test system of another test is Aspergillus fumigatus. Kind of test: Antifungal activity against Aspergillus fumigatus NCIM no. 902 after 3 to 4 days by serial plate dilution method. The settings on record: for MIC: Aspergillus fumigatus. The format is functional.
A further test has as its system Klebsiella pneumoniae. Kind of test: Antibacterial activity against Klebsiella pneumoniae after 24 hrs by disc diffusion method. The format is functional. The settings on record: for MIC: Klebsiella pneumoniae, 24 h.
The subject of the next test is Pseudomonas aeruginosa. Kind of test: microbe, parasite or virus in culture. The format is functional, ATCC 27853. To be noted: for MIC: Pseudomonas aeruginosa, ATCC 27853, 24 h.

In brackets after ≈: the same amount, converted by molar mass.

Description for Escherichia coli: Antibacterial activity against Escherichia coli ATCC 25922 after 24 hrs by disc diffusion method
Description for Pseudomonas aeruginosa: Antibacterial activity against Pseudomonas aeruginosa ATCC 27853 after 24 hrs by disc diffusion method
Description for Staphylococcus aureus: Antibacterial activity against Staphylococcus aureus ATCC 25923 after 24 hrs by disc diffusion method

Consider `O=C(COc1ccc(Cl)cc1Cl)N1N=C(c2ccc(Cl)cc2)CC1(O)c1cc(F)c(Cl)cc1Cl` (configuration not stated), for which the MIC is > 100 µg/mL in the test with Talaromyces marneffei; > 100 µg/mL with Streptococcus pyogenes; > 100 µg/mL against Candida albicans; 25 µg/mL (≈ 44.4 µM) against Aspergillus flavus; 25 µg/mL (≈ 44.4 µM) against Escherichia coli; > 100 µg/mL against Staphylococcus aureus. Further, the MIC against Trichophyton benhamiae was 12.5 µg/mL (≈ 22.2 µM); in the test with Aspergillus fumigatus, > 100 µg/mL; in the test on Klebsiella pneumoniae, 6.25 µg/mL (≈ 11.1 µM); with Pseudomonas aeruginosa it was 6.25 µg/mL (≈ 11.1 µM). Moreover, the “inhibition zone (IZ)” value in the test with Aspergillus flavus came out at 10 mm; with Escherichia coli it was 10 mm; with Trichophyton benhamiae, 12 mm; in the test on Pseudomonas aeruginosa, 23 mm.
For the molecule `Cc1ccc(OCC(=O)N2N=C(c3ccc(Cl)cc3)CC2(O)c2cc(F)c(Cl)cc2Cl)cc1` (configuration not stated), the “inhibition zone (IZ)” value in the test on Talaromyces marneffei worked out at 17 mm; in the test on Streptococcus pyogenes, 18 mm; in the test on Candida albicans, 19 mm; with Aspergillus flavus, 15 mm; in the test with Escherichia coli, 17 mm; with Staphylococcus aureus, 19 mm. The “inhibition zone (IZ)” value with Trichophyton benhamiae worked out at 20 mm; in the test on Aspergillus fumigatus, 19 mm; in the test with Klebsiella pneumoniae, 18 mm; in the test with Pseudomonas aeruginosa, 24 mm. Moreover, the MIC turned out to be 6.25 µg/mL (≈ 12.3 µM) in the test on Talaromyces marneffei; 12.5 µg/mL (≈ 24.6 µM) with Streptococcus pyogenes; 12.5 µg/mL (≈ 24.6 µM) against Candida albicans; 12.5 µg/mL (≈ 24.6 µM) in the test on Aspergillus flavus; 12.5 µg/mL (≈ 24.6 µM) in the test with Escherichia coli; 6.25 µg/mL (≈ 12.3 µM) in the test with Staphylococcus aureus. Further, the MIC with Trichophyton benhamiae, in the test on Aspergillus fumigatus, against Klebsiella pneumoniae and against Pseudomonas aeruginosa was 6.25 µg/mL (≈ 12.3 µM) in each case.
With `Cc1ccc(OCC(=O)N2N=C(c3ccc(Cl)cc3Cl)CC2(O)c2cc(F)c(Cl)cc2Cl)cc1` (configuration not stated), the “inhibition zone (IZ)” value worked out at 18 mm in the test with Talaromyces marneffei; 18 mm in the test on Streptococcus pyogenes; 19 mm in the test on Candida albicans; 16 mm with Aspergillus flavus; 15 mm with Escherichia coli; 19 mm in the test on Staphylococcus aureus. The “inhibition zone (IZ)” value is reported as 18 mm in the test on Trichophyton benhamiae, 20 mm in the test on Aspergillus fumigatus, 18 mm in the test on Klebsiella pneumoniae and 24 mm in the test on Pseudomonas aeruginosa. Further, the MIC against Talaromyces marneffei is 6.25 µg/mL (≈ 11.5 µM); in the test with Streptococcus pyogenes, 12.5 µg/mL (≈ 23.1 µM); in the test with Candida albicans it was 6.25 µg/mL (≈ 11.5 µM); in the test on Aspergillus flavus, 12.5 µg/mL (≈ 23.1 µM); against Escherichia coli, 12.5 µg/mL (≈ 23.1 µM); against Staphylococcus aureus it was 6.25 µg/mL (≈ 11.5 µM). The MIC with Trichophyton benhamiae, against Aspergillus fumigatus, against Klebsiella pneumoniae and in the test on Pseudomonas aeruginosa was 6.25 µg/mL (≈ 11.5 µM) each time.
Regarding `COc1ccc(C2=NN(C(=O)COc3ccc(Cl)cc3Cl)C(O)(c3cc(F)c(Cl)cc3Cl)C2)cc1OC` (configuration not stated), the “inhibition zone (IZ)” value with Talaromyces marneffei is listed as 12 mm; in the test with Escherichia coli, 9 mm; in the test on Aspergillus fumigatus, 14 mm. The MIC against Talaromyces marneffei is 25 µg/mL (≈ 42.5 µM); in the test with Streptococcus pyogenes it was > 100 µg/mL; in the test on Candida albicans it was > 100 µg/mL; against Aspergillus flavus, > 100 µg/mL; with Escherichia coli it was 25 µg/mL (≈ 42.5 µM); in the test with Staphylococcus aureus it was > 100 µg/mL. In addition, the MIC was > 100 µg/mL with Trichophyton benhamiae, 12.5 µg/mL (≈ 21.2 µM) against Aspergillus fumigatus, > 100 µg/mL in the test with Klebsiella pneumoniae and > 100 µg/mL in the test on Pseudomonas aeruginosa.
